In series [1] the test system is mitochondrial superoxide in MOLM14 cells. Briefly: Mitochondrial superoxide (MitoSOX Red, flow cytometry). It is filed as cell-based, human. The following applies: 16 h; for mitochondrial superoxide generation, drug alone: 2.25× approximate 48 h IC50, MitoSox MFI; for effect of the drug on AS-induced superoxide: drug combined with AS, each at 2.25× approximate 48 h IC50; for effect of the drug on ART-838-induced superoxide: drug combined with ART-838, each at 2.25× approximate 48 h IC50. As for the experimental part: FIGS. 4A-4D. Effects of ART-838- and AS-containing drug combinations on MOLM14 growth and superoxide generation. […] CIs were computed as described above. CI<1 indicates synergy, CI=1, additivity, CI>1, antagonism. […] Cells were then loaded with 5 μM MitoSox for 30 min, washed, and analyzed by flow cytometry for MitoSox fluorescence (indicating mitochondrial superoxide) in the FL2 channel. Mean fluorescence intensity (MFI) was normalized to that of vehicle control (0.5% DMSO) with no pretreatment (100%, lower dotted lines). Upper dotted lines show MFI of ART-838- or AS-treated cells. Error bars represent the SEM of three independent experiments.
Cells were pretreated with NAC, Tiron, DFO, or vehicle then treated with AS, ART-838, or vehicle, as described above, then following a 16-hour drug treatment, cells were loaded with 5 μM MitoSOX Red (Invitrogen, Carlsbad, Calif.) for 30 minutes at 37° C. with 5% CO2, then analyzed using the FL2 channel of an Accuri C6 flow cytometer.
As both ART-838 and AS increased mitochondrial superoxide, and many antineoplastic drugs induce ROS generation, mitochondrial superoxide levels of MOLM14 cells treated with each of the above six antileukemic drugs were evaluated, alone and in combination with ART-838 or AS. All six drugs induced mitochondrial superoxide, although to a much lesser extent than did ART-838 (FIG. 4B) or AS (FIG. 4D).

For series [2], the system named is MOLM14-luc AML xenografts. Nature of the series: Subcutaneous MOLM14-luc xenograft growth, ARA with ART-838. It is filed as in vivo, NSG mice. The following applies: tumor size on day 24; Ara-C 40 mg/kg/d i.p., ART-838 200 mg/kg/d p.o.
Experimental: Ara-C (40 mg/kg/d) was given i.p. on day 17, 18, 19, 20, 21 and 24. […] Mouse tumors were measured on the indicated days.
Highly immunodeficient NSG mice, obtained originally from Jackson Laboratory (Bar Harbor, Me.), were bred and housed in the UMSOM animal facilities, and handled in a laminar flow hood under aseptic conditions. […] For the human AML xenograft model, 6-12-week-old male NSG mice (>20 g) were transplanted sc with MOLM14-luc cells on day 0 and drug-treated via oral gavage, as specified in legend. Mice were monitored daily and euthanized when tumors reached an estimated mass of 2000 mg (using the formula: [length×width2]/2, assuming density=1 mg/mm3) [64].
Palpable tumors (approximately 100 mg tumor mass) appeared in mice about 2 weeks after transplantation. Mouse tumors were measured with calipers on the indicated days.
The test system of series [3] is MOLM14 cells. Briefly: alamarBlue cytotoxicity assay, single drugs, 48 h. It is filed as cell-based. Conditions: Homo sapiens, MOLM-14, MOLM14, 48 h, means of at least three experiments. As for the experimental part: Cytotoxicity was assessed using alamarBlue assays (Life Technologies, Grand Island, N.Y.; used for IC50 determinations and all drug combinations except the drug combination screen (method described separately below)) or Trypan Blue dye exclusion (Life Technologies, Grand Island, N.Y.; used for experiments using inhibitors that could interfere with alamarBlue assay performance (NAC, Tiron, DFO)).
(§1) Cell lines were seeded in 96-well tissue culture plates at 10^4 cells per well (myeloid leukemia lines) or 2×10^4 cells per well (lymphoid leukemia lines) in culture medium, followed by addition of drugs at the indicated concentrations. 2-4 wells per plate containing media-only were included for background subtraction. Peripheral wells were filled with sterile water to minimize the effects of evaporation.
Results were normalized to cells treated with vehicle (0.5% DMSO) alone. IC50s were calculated using CompuSyn software and represent the means of at least three experiments performed in triplicate.

In series [4] the test system is MOLM14, KOPN8 and RCH-ACV cell lines. Briefly: Kinase inhibitor drug combination screen, summary over the three cell lines. Conditions: for No. Cell Lines synergistically inhibited by drug 1 combined with AS and/or ART-838: >10% growth inhibition over the Bliss prediction, of three cell lines; for synergy with either AS or ART-838: growth inhibition of human leukemia cell lines.
Experimental: Plates (3×384-well per set) contained 7 graded concentrations of each drug at 2× final concentration in culture media in 25 μl/well. […] Cells were plated such that each well contained 2500 cells (MOLM14) or 5000 cells (KOPN8 and RCH-ACV). […] Each plate contained two positive control wells used for background subtraction. Each plate also contained 45 wells without any drug. The background-subtracted absorbance for each well was normalized to the average of the no-drug wells from the corresponding vehicle plate.
Hits were ranked by the observed inhibition over the Bliss independence prediction.
Combinations with positive values for this Bliss difference were considered synergistic, values near zero, additive, and negative values, antagonistic.

The test system of series [5] is MOLM14 cells. Nature of the series: Chou-Talalay drug combination analysis (alamarBlue) of AS or ART-838 with antileukemic drugs. It is filed as cell-based, human. The following applies: simultaneous 48 h, each drug at 2.25× single-drug IC50, CI<1 synergy, =1 additivity, >1 antagonism. The procedure: For each two-drug pair, dose-response curves were generated for each drug individually and for the two drugs combined. […] This design is based on the recommendation of Chou that combination experiments be performed with drugs combined in an equipotent ratio based on their respective single-drug IC50 values. Following a 48-hour incubation with each drug or drug pair, cytotoxicity assays were performed using alamarBlue as described above.
Each set of drug combinations was tested in at least three independent experiments, each in triplicate.
Sequences are depicted at the bottom of FIG. 5.
For orientation: The colour change of resazurin is a common sign of viable cells or microbes.

The test system of another series is human AML cell lines. Nature of the series: In vitro efficacies of artemisinin derivatives against human AML cell lines. It is filed as cell-based. The procedure: as §1
A novel trioxane dimer allyloxime-631 (ART631) has been designed to further extend in vivo T1/2 without sacrificing antimalarial activity.

The nature of another series: in vivo. Conditions: NRG (NOD-Rag1null IL2rgnull), mouse, in vivo, po. An excerpt: FIG. 24. Concentration-time profile for 2C-ARTs with PK parameters.
FIG. 25A-25C. […] NOD-Rag1^nullIL2rg^null (NRG) mice were transplanted IV with Luc-labelled MV4; 11 cells on d10. […] FIG. 25A) MTD cyclic drug treatment schema.

Series [6] concerns MOLM14 cells. Briefly: Combinations of AS, ART-838 or DHA with ABT-199, ABT-263 or ABT-737 (alamarBlue, 48 h). Conditions: Homo sapiens, MOLM-14; for inhibition at 0.037 µM: MOLM14. It is filed as cell-based. The procedure:
FIG. 12. […] Then cytotoxicity was evaluated by alamarBlue assays. Each experiment was performed in triplicate.
MOLM14 or KOPN8 cells were seeded in 96-well plates as described above for alamarBlue assays. […] AlamarBlue assays were performed as described above. Each set of drugs or drug combinations was tested in triplicate. Chou-Talalay drug combination analysis was performed as above.

Read-outs that look alike come from different tables or passages of the source. Marks after values point to notes of the source that are not given here.

What is called IC50 is the concentration that inhibits the measured activity by half. What is called inhibition is the drop in the measured response relative to a control, in per cent.

For the molecule `Nc1ccn([C@@H]2O[C@H](CO)[C@@H](O)[C@@H]2O)c(=O)n1` [ARA, cytarabine], in series [1], the “mitochondrial superoxide generation, drug alone” value is given as “induced mitochondrial superoxide generation” and the “effect of the drug on AS-induced superoxide” value is “further enhanced”. Besides, the “tumor growth inhibition, ARA plus ART-838 versus either drug alone” value in series [2] is “inhibited tumor growth substantially more than did either drug alone”. The IC50 in the series on MOLM14 cells [3] was found to be 286 nM.
`COc1cccc2c1C(=O)c1c(O)c3c(c(O)c1C2=O)C[C@@](O)(C(=O)CO)C[C@@H]3O[C@H]1C[C@H](N)[C@H](O)[C@H](C)O1` [DOX, doxorubicin]: in series [1], the “mitochondrial superoxide generation, drug alone” value is listed as “induced mitochondrial superoxide generation”; the “effect of the drug on ART-838-induced superoxide” value is reported as “further enhanced”; the “effect of the drug on AS-induced superoxide” value is given as “further enhanced”.
As to `CCc1cc(Nc2nccc(-c3c(-c4ccc(OC)c(C(=O)Nc5c(F)cccc5F)c4)nc4ccccn34)n2)c(OC)cc1N1CCC(N2CCN(S(C)(=O)=O)CC2)CC1` [GSK-1904529A], in series [4], the “No. Cell Lines synergistically inhibited by drug 1 combined with AS and/or ART-838” value (shortened to “No. Cell Lines synergistically inhibited”) is recorded as 3/3.
On to `CC1(C)CCC(c2ccc(Cl)cc2)=C(CN2CCN(c3ccc(C(=O)NS(=O)(=O)c4ccc(N[C@H](CCN5CCOCC5)CSc5ccccc5)c(S(=O)(=O)C(F)(F)F)c4)cc3)CC2)C1` [ABT-263, navitoclax], for which the “synergy with either AS or ART-838” value in series [4] was “Particularly strong synergy”.
Take `C[C@]12O[C@H](C[C@]1(O)CO)n1c3ccccc3c3c4c(c5c6ccccc6n2c5c31)CNC4=O` [LES, lestaurtinib]: the “combination index (CI) of the drug combined with AS” value with MOLM14 cells [5] worked out at 1.5.
`CN(C)CC[C@H](CSc1ccccc1)Nc1ccc(S(=O)(=O)NC(=O)c2ccc(N3CCN(Cc4ccccc4-c4ccc(Cl)cc4)CC3)cc2)cc1[N+](=O)[O-]` [ABT-737]: in series [4], the “No. Cell Lines synergistically inhibited” value is 3/3 and the “synergy with either AS or ART-838” value is on record as “Particularly strong synergy”.
Take `C[C@@H](Oc1cc(-c2cnn(C3CCNCC3)c2)cnc1N)c1c(Cl)ccc(F)c1Cl` [Crizotinib]: the “No. Cell Lines synergistically inhibited” value in series [4] is 2/3**.
Consider `O=S(=O)(NCCNC/C=C/c1ccc(Br)cc1)c1cccc2cnccc12` [H-89], for which, in series [4], the “No. Cell Lines synergistically inhibited” value is reported as 2/3.
For `C[C@H]1[C@H](OC(=O)CCC(=O)O)O[C@@H]2O[C@@]3(C)CC[C@H]4[C@H](C)CC[C@@H]1[C@@]24OO3` [AS, artesunate], the IC50 in the series on human AML cell lines (median over the human AML cell lines tested (11 for AS and ART838, 4 for ART631), read-out: IC50 median) was 1720 nM; in the series with human AML cell lines (range over the human AML cell lines tested (11 for AS and ART838, 4 for ART631), read-out: IC50 range), 796 to 6260 nM; with MOLM14 cells [6] (MOLM14 (AML) cell line) it was 825 nM. The “mitochondrial superoxide generation, drug alone” value in series [1] is recorded as “induced mitochondrial superoxide generation”. This molecule also had an MTD at 5 d in “in vivo” of 200 mg/kg/day.
`Nc1ncnc2c1c(-c1cccc(OCc3ccccc3)c1)cn2C1CC(CN2CCCC2)C1` (centres unmarked) [NVP-ADW742]: the “No. Cell Lines synergistically inhibited” value in series [4] is 2/3.
Regarding `Cn1cc(-c2ccc3nnc(C(F)(F)c4ccc5ncccc5c4)n3n2)cn1` [JNJ-38877605], the “No. Cell Lines synergistically inhibited” value in series [4] is 2/3.
`COc1cc([C@@H]2c3cc4c(cc3[C@@H](O[C@@H]3O[C@@H]5CO[C@@H](C)O[C@H]5[C@H](O)[C@H]3O)[C@H]3COC(=O)[C@H]23)OCO4)cc(OC)c1O` [ETO, etoposide]: in series [1], the “mitochondrial superoxide generation, drug alone” value was “induced mitochondrial superoxide generation”; the “effect of the drug on ART-838-induced superoxide” value is on record as “further enhanced”; the “effect of the drug on AS-induced superoxide” value was “further enhanced”. Also, in the series with MOLM14 cells [3], the IC50 is 242 nM.
With `O=C(Nc1cccc(C(F)(F)F)c1)Nc1cc(S(=O)(=O)NC2CC2)ccc1-c1ccsc1` [AGI6780], the “No. Cell Lines synergistically inhibited” value in series [4] is listed as 2/3**.
Take `Cc1ccc(S(=O)(=O)OCC(=O)Nc2ccc(C(=O)O)c(O)c2)cc1` [S31-201]: the “No. Cell Lines synergistically inhibited” value in series [4] is recorded as 2/3.
For the molecule `COc1ccc(COc2ccc(Cc3cnc(N)nc3N)cc2OC)cc1` [GW-2580], the “No. Cell Lines synergistically inhibited” value in series [4] is recorded as 2/3.
Consider `CC1(C)CCC(CN2CCN(c3ccc(C(=O)NS(=O)(=O)c4ccc(NCC5CCOCC5)c([N+](=O)[O-])c4)c(Oc4cnc5[nH]ccc5c4)c3)CC2)=C(c2ccc(Cl)cc2)C1` [ABT-199, venetoclax], for which, in series [4] (average of 3/3 cell lines), the “average inhibition over the Bliss predictions, ABT-199 plus ART-838” value is given as 21% and the “average inhibition over the Bliss predictions, ABT-199 plus AS” value is 17%. Moreover, the inhibition at 0.037 µM in the series on MOLM14 cells [6] (37 nM ABT-199 + 25 nM ART-838, read-out: growth inhibition, ABT-199 together with ART-838) worked out at 100%. For the same molecule, in the series on MOLM14 cells [6] (37 nM ABT-199 + 825 nM AS, read-out: growth inhibition, ABT-199 together with AS), the inhibition at 0.037 µM was 100%.

Source of the values: patent US11554105B2, “Combinations of artemisinins, BCL-2 inhibitors, and kinase inhibitors for cancer treatment” (UNIVERSITY OF MARYLAND, BALTIMORE, priority 2018, dated 2023).
